{"source": "patent US20260216103A1", "about": "“USE OF LONG-ACTING ß2AR AGONIST IN PREPARATION OF DRUGS FOR TREATING CANCERS” (HONG KONG SXMETEROL PHARMACEUTICAL CO., LIMITED, priority 2023, published 2026)", "key": {"[1]": {"tested_on": "CT-26 colorectal cancer cells", "test": "subcutaneous tumorigenesis experiment with SX-pretreated colorectal cancer cells", "type": "in vivo, mice", "details": "cells treated with 10 μM SX for 7 d", "description": "(§1) Experimental method and steps: Cancer cells were treated with salmeterol xinafoate (SX) in vitro for 3-7 d, and a subcutaneous or orthotopic tumorigenesis experiment was conducted on mice.\nCT-26 colorectal cancer cells were treated with 10 μM salmeterol xinafoate (SX) for 7 d, and cells (1×10^5/mouse) were subcutaneously injected on both sides of the back of mice in a control group and an SX treated group (5 mice/group) to conduct a tumorigenesis experiment. 10 cancers formed subcutaneously at 10 injection sites of 5 mice in the control group, and 8 cancers formed subcutaneously at 10 injection sites of 5 mice in the SX treated group.\nExperimental results in FIG. 5 show cancer growth curves and representative cancer photos."}, "[2]": {"tested_on": "H460 lung cancer cells", "test": "subcutaneous tumorigenesis experiment with SX-pretreated lung cancer cells (H460)", "type": "in vivo, mice", "details": "cells treated with 10 μM SX for 7 d", "description": "as §1\nIn FIG. 6A, H460 lung cancer cells were treated with 10 μM salmeterol xinafoate (SX) for 7 d, and cells (3×10^5/mouse) were subcutaneously injected on both sides of the back of mice in a control group (7 mice) and an SX treated group (5 mice) to conduct a tumorigenesis experiment.\nExperimental results in FIG. 6 show cancer growth curves and representative cancer photos."}, "[3]": {"tested_on": "CAL-27 head and neck cancer cells", "test": "subcutaneous tumorigenesis experiment with SX-pretreated head and neck cancer cells", "type": "in vivo, mice", "details": "cells treated with 10 μM SX for 3 d, 1×10^6/mouse; FIG. 7; P<0.0001 vs control", "description": "as §1\nCAL-27 head and neck cancer cells were treated with 10 μM salmeterol xinafoate (SX) for 3 d, and cells (1×10^6/mouse) were subcutaneously injected on both sides of the back of mice in a control group and an SX treated group (3 mice/group) to conduct a tumorigenesis experiment.\nExperimental results in FIG. 7 show cancer growth curves."}, "[4]": {"tested_on": "RT4 bladder cancer cells", "test": "subcutaneous tumorigenesis experiment with SX-pretreated bladder cancer cells", "type": "in vivo, mice", "details": "cells treated with 10 μM SX for 3 d, 1×10^6/mouse; FIG. 9; P<0.0001 vs control", "description": "as §1\nRT4 bladder cancer cells were treated with 10 μM salmeterol xinafoate (SX) for 3 d, and cells (1×10^6/mouse) were subcutaneously injected on both sides of the back of mice in a control group and an SX treated group (5 mice/group) to conduct a tumorigenesis experiment.\nExperimental results in FIG. 9 show cancer growth curves."}, "[5]": {"tested_on": "colorectal cancer cells CT-26, SW620, HCT-15, DLD-1", "test": "tumor sphere formation assay of colorectal cancer cells", "type": "cell-based", "details": "1 μM, 3 μM, or 10 μM, 7 d; FIG. 12", "excerpt": "(§2) As a gold standard for detecting the self-renewal capability of cancer stem cells in vitro, a tumor sphere formation assay may detect individual cancer stem cell that continuously self-renew in a conditioned medium and form tumor spheres consisting of multiple cells. This in vitro experiment is often used to test the responsiveness of clinical patients to anticancer drugs, and guide in vivo medication of the clinical patients."}, "[6]": {"tested_on": "ovarian cancer cells SKOV3", "test": "tumor sphere formation assay of ovarian cancer cells", "type": "cell-based", "details": "1 μM, 3 μM, or 10 μM, 7 d; FIG. 21", "excerpt": "as §2"}, "[7]": {"tested_on": "kidney cancer cells G-401, 786-O", "test": "tumor sphere formation assay of kidney cancer cells", "type": "cell-based", "details": "1 μM, 3 μM, or 10 μM, 7 d; FIG. 22", "excerpt": "as §2"}, "[8]": {"tested_on": "pancreatic cancer cells CFPAC-1, PANC-1", "test": "tumor sphere formation assay of pancreatic cancer cells", "type": "cell-based", "details": "1 μM, 3 μM, or 10 μM, 7 d; FIG. 24", "excerpt": "as §2"}, "[9]": {"tested_on": "cervical cancer cells Hela", "test": "tumor sphere formation assay of cervical cancer cells", "type": "cell-based", "details": "1 μM, 3 μM, or 10 μM, 7 d; FIG. 27", "excerpt": "as §2"}}}
{"smiles": "OCc1cc(C(O)CNCCCCCCOCCCCc2ccccc2)ccc1O", "note": "(centres unmarked) [salmeterol xinafoate]", "values": [{"measurement": "cancers formed subcutaneously at injection sites", "setting": "[1]; 1×10^5/mouse, 10 injection sites of 5 mice, control group 10", "value": 8}, {"measurement": "cancer growth curves (initiation and progression)", "setting": "[1]; FIG. 5, P<0.0001 vs control", "value": "inhibits the initiation and progression of subcutaneous colorectal cancer"}, {"measurement": "cancers formed subcutaneously at injection sites", "setting": "[2]; 3×10^5/mouse, 10 injection sites of 5 mice, control group 11 at 14 sites", "value": "no cancers formed"}, {"measurement": "cancer growth curves (initiation and progression)", "setting": "[2]; FIG. 6A, P<0.0001 vs control", "value": "inhibits the initiation and progression of subcutaneous lung cancer"}, {"measurement": "cancer growth curves (initiation and progression)", "setting": "[3]", "value": "inhibits the initiation and progression of subcutaneous head and neck cancer"}, {"measurement": "cancer growth curves (initiation and progression)", "setting": "[4]", "value": "inhibits the initiation and progression of subcutaneous bladder cancer"}, {"measurement": "number of tumor spheres (self-renewal capability of cancer stem cells)", "setting": "[5]", "value": "inhibited the self-renewal capability of the colorectal cancer stem cells in a concentration dependent manner"}, {"measurement": "number of tumor spheres (self-renewal capability of cancer stem cells)", "setting": "[6]", "value": "inhibited the self-renewal capability of the ovarian cancer stem cells in a concentration dependent manner"}, {"measurement": "number of tumor spheres (self-renewal capability of cancer stem cells)", "setting": "[7]", "value": "inhibited the self-renewal capability of the kidney cancer stem cells in a concentration dependent manner"}, {"measurement": "number of tumor spheres (self-renewal capability of cancer stem cells)", "setting": "[8]", "value": "inhibited the self-renewal capability of the pancreatic cancer stem cells in a concentration dependent manner"}, {"measurement": "number of tumor spheres (self-renewal capability of cancer stem cells)", "setting": "[9]", "value": "inhibited the self-renewal capability of the cervical cancer stem cells in a concentration dependent manner"}]}
